# Assay results: the supplement of paper PMC10307832
# Key:
# Assay in all cases: relative viability (nuclei count vs DMSO), 5 days (fraction); higher = more cells survive
# EMC-BAC-2 = tested on: EMC-BAC-2
# In short: (§1)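 Lung cancer cell lines were seeded in 1536-well plates and dosed by pin tool the next day, with either a single drug or a fixed anchor-drug dose combined with five library-drug doses (not always all listed) spaced in √10 steps. Five days later, one step fixed the cells and stained their nuclei (final 0.05% Triton X-100, 1% formaldehyde, 1 ug/ml Hoechst), and nuclei were counted on 4× images. Relative viability is the nuclei count in treated wells divided by the count in vehicle wells, and each value is the median of duplicate plates.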
# NCI-H727 = tested on: NCI-H727
# In short: as §1
# NCI-H1437 = tested on: NCI-H1437
# In short: as §1
# NCI-H2009 = tested on: NCI-H2009
# In short: as §1
# NCI-H2023 = tested on: NCI-H2023
# In short: as §1
# NCI-H2170 = tested on: NCI-H2170
# In short: as §1
# NCI-H647 = tested on: NCI-H647
# In short: as §1
# NCI-H460 = tested on: NCI-H460
# In short: as §1
# NCI-H2405 = tested on: NCI-H2405
# In short: as §1
# EPLC-272H = tested on: EPLC-272H
# In short: as §1
# NCI-H520 = tested on: NCI-H520
# In short: as §1
# LOU-NH91 = tested on: LOU-NH91
# In short: as §1
# NCI-H2347 = tested on: NCI-H2347
# In short: as §1
# HOP-62 = tested on: HOP-62
# In short: as §1
# NCI-H2126 = tested on: NCI-H2126
# In short: as §1
# HCC-44 = tested on: HCC-44
# In short: as §1
# NCI-H23 = tested on: NCI-H23
# In short: as §1
# ChaGo-K-1 = tested on: ChaGo-K-1
# In short: as §1
# NCI-H441 = tested on: NCI-H441
# In short: as §1
# NCI-H1793 = tested on: NCI-H1793
# In short: as §1
# LCLC-103H = tested on: LCLC-103H
# In short: as §1
# NCI-H650 = tested on: NCI-H650
# In short: as §1
# SW 1573 = tested on: SW 1573
# In short: as §1
structure (smiles),measurement,setting,value
O=c1[nH]c2ccccc2n1C1CCN(CCCC(c2ccc(F)cc2)c2ccc(F)cc2)CC1 [Pimozide] + COc1cccc2cc(-c3nc([C@H]4CC[C@H](C(=O)O)CC4)n4ncnc(N)c34)[nH]c12 [OSI-027] (partner 0.5 µM),relative viability,EMC-BAC-2; first compound 0.08 µM,0.353
same,relative viability,EMC-BAC-2; first compound 0.253 µM,0.337
same,relative viability,EMC-BAC-2; first compound 0.8 µM,0.342
same,relative viability,EMC-BAC-2; first compound 2.53 µM,0.338
same,relative viability,EMC-BAC-2; first compound 8 µM,0.391
same,relative viability,NCI-H727; first compound 0.08 µM,0.717
same,relative viability,NCI-H727; first compound 0.253 µM,0.55
same,relative viability,NCI-H727; first compound 0.8 µM,0.512
same,relative viability,NCI-H727; first compound 2.53 µM,0.652
same,relative viability,NCI-H727; first compound 8 µM,0.54
same,relative viability,NCI-H1437; first compound 0.08 µM,0.93
same,relative viability,NCI-H1437; first compound 0.253 µM,0.888
same,relative viability,NCI-H1437; first compound 0.8 µM,0.883
same,relative viability,NCI-H1437; first compound 2.53 µM,0.89
same,relative viability,NCI-H1437; first compound 8 µM,0.676
same,relative viability,NCI-H2009; first compound 0.08 µM,0.69
same,relative viability,NCI-H2009; first compound 0.253 µM,0.655
same,relative viability,NCI-H2009; first compound 0.8 µM,0.671
same,relative viability,NCI-H2009; first compound 2.53 µM,0.526
same,relative viability,NCI-H2009; first compound 8 µM,0.416
same,relative viability,NCI-H2023; first compound 0.08 µM,0.418
same,relative viability,NCI-H2023; first compound 0.253 µM,0.465
same,relative viability,NCI-H2023; first compound 0.8 µM,0.413
same,relative viability,NCI-H2023; first compound 2.53 µM,0.307
same,relative viability,NCI-H2023; first compound 8 µM,0.231
same,relative viability,NCI-H2170; first compound 0.08 µM,0.617
same,relative viability,NCI-H2170; first compound 0.253 µM,0.628
same,relative viability,NCI-H2170; first compound 0.8 µM,0.681
same,relative viability,NCI-H2170; first compound 2.53 µM,0.692
same,relative viability,NCI-H2170; first compound 8 µM,0.551
same,relative viability,NCI-H647; first compound 0.08 µM,0.656
same,relative viability,NCI-H647; first compound 0.253 µM,0.71
same,relative viability,NCI-H647; first compound 0.8 µM,0.677
same,relative viability,NCI-H647; first compound 2.53 µM,0.611
same,relative viability,NCI-H647; first compound 8 µM,0.404
same,relative viability,NCI-H460; first compound 0.08 µM,0.755
same,relative viability,NCI-H460; first compound 0.253 µM,0.66
same,relative viability,NCI-H460; first compound 0.8 µM,0.708
same,relative viability,NCI-H460; first compound 2.53 µM,0.518
same,relative viability,NCI-H460; first compound 8 µM,0.484
same,relative viability,NCI-H2405; first compound 0.08 µM,0.654
same,relative viability,NCI-H2405; first compound 0.253 µM,0.576
same,relative viability,NCI-H2405; first compound 0.8 µM,0.689
same,relative viability,NCI-H2405; first compound 2.53 µM,0.665
same,relative viability,NCI-H2405; first compound 8 µM,0.707
same,relative viability,EPLC-272H; first compound 0.08 µM,0.276
same,relative viability,EPLC-272H; first compound 0.253 µM,0.302
same,relative viability,EPLC-272H; first compound 0.8 µM,0.25
same,relative viability,EPLC-272H; first compound 2.53 µM,0.176
same,relative viability,EPLC-272H; first compound 8 µM,0.234
same,relative viability,NCI-H520; first compound 0.08 µM,0.24
same,relative viability,NCI-H520; first compound 0.253 µM,0.255
same,relative viability,NCI-H520; first compound 0.8 µM,0.235
same,relative viability,NCI-H520; first compound 2.53 µM,0.212
same,relative viability,NCI-H520; first compound 8 µM,0.227
same,relative viability,LOU-NH91; first compound 0.08 µM,0.442
same,relative viability,LOU-NH91; first compound 0.253 µM,0.699
same,relative viability,LOU-NH91; first compound 0.8 µM,0.638
same,relative viability,LOU-NH91; first compound 2.53 µM,0.729
same,relative viability,LOU-NH91; first compound 8 µM,0.708
same,relative viability,NCI-H2347; first compound 0.253 µM,0.497
same,relative viability,NCI-H2347; first compound 0.8 µM,0.413
same,relative viability,NCI-H2347; first compound 2.53 µM,0.39
same,relative viability,NCI-H2347; first compound 8 µM,0.359
same,relative viability,HOP-62; first compound 0.08 µM,0.859
same,relative viability,HOP-62; first compound 0.253 µM,0.806
same,relative viability,HOP-62; first compound 2.53 µM,0.759
same,relative viability,HOP-62; first compound 8 µM,0.773
same,relative viability,NCI-H2126; first compound 0.08 µM,0.711
same,relative viability,NCI-H2126; first compound 0.253 µM,0.63
same,relative viability,NCI-H2126; first compound 0.8 µM,0.755
same,relative viability,NCI-H2126; first compound 2.53 µM,0.712
same,relative viability,NCI-H2126; first compound 8 µM,0.744
same,relative viability,HCC-44; first compound 0.08 µM,0.489
same,relative viability,HCC-44; first compound 0.253 µM,0.554
same,relative viability,HCC-44; first compound 0.8 µM,0.4
same,relative viability,HCC-44; first compound 2.53 µM,0.52
same,relative viability,HCC-44; first compound 8 µM,0.289
same,relative viability,NCI-H23; first compound 0.08 µM,0.696
same,relative viability,NCI-H23; first compound 0.253 µM,0.603
same,relative viability,NCI-H23; first compound 0.8 µM,0.379
same,relative viability,NCI-H23; first compound 2.53 µM,0.443
same,relative viability,NCI-H23; first compound 8 µM,0.477
same,relative viability,ChaGo-K-1; first compound 0.08 µM,0.594
same,relative viability,ChaGo-K-1; first compound 0.253 µM,0.555
same,relative viability,ChaGo-K-1; first compound 0.8 µM,0.517
same,relative viability,ChaGo-K-1; first compound 2.53 µM,0.531
same,relative viability,ChaGo-K-1; first compound 8 µM,0.485
same,relative viability,NCI-H441; first compound 0.08 µM,0.608
same,relative viability,NCI-H441; first compound 0.253 µM,0.577
same,relative viability,NCI-H441; first compound 0.8 µM,0.478
same,relative viability,NCI-H441; first compound 2.53 µM,0.436
same,relative viability,NCI-H441; first compound 8 µM,0.406
same,relative viability,NCI-H1793; first compound 0.253 µM,0.239
same,relative viability,NCI-H1793; first compound 0.8 µM,0.205
same,relative viability,NCI-H1793; first compound 2.53 µM,0.245
same,relative viability,NCI-H1793; first compound 8 µM,0.115
same,relative viability,LCLC-103H; first compound 0.08 µM,0.482
same,relative viability,LCLC-103H; first compound 0.253 µM,0.452
same,relative viability,LCLC-103H; first compound 0.8 µM,0.384
same,relative viability,LCLC-103H; first compound 2.53 µM,0.425
same,relative viability,LCLC-103H; first compound 8 µM,0.423
same,relative viability,NCI-H650; first compound 0.08 µM,0.536
same,relative viability,NCI-H650; first compound 0.253 µM,0.555
same,relative viability,NCI-H650; first compound 0.8 µM,0.405
same,relative viability,NCI-H650; first compound 2.53 µM,0.537
same,relative viability,NCI-H650; first compound 8 µM,0.606
same,relative viability,SW 1573; first compound 0.08 µM,0.611
same,relative viability,SW 1573; first compound 0.253 µM,0.668
same,relative viability,SW 1573; first compound 0.8 µM,0.602
same,relative viability,SW 1573; first compound 2.53 µM,0.525
same,relative viability,SW 1573; first compound 8 µM,0.307
